Measured values: patent US20040209956A1 (priority 2003, published 2004)

How the values were obtained:
Assay type in all cases: physicochemical
[1] = Solubility experiments in acetonitrile/water with and without excess maleic acid; conditions: 90/10 acetonitrile/water with excess maleic acid; nineteen days at 5° C.; slurry in single liquid phase, solids form II
Method: These vials were then placed in a shaker bath at 5° C. After four days of equilibration when the vials were observed, it was discovered that the system had turned from a suspension of solids in a single liquid phase to a biphasic liquid with no suspended solids. Both layers from each of the three vials were analyzed for water content (through Karl-Fischer analysis) and concentration of the compound. […] It is worth pointing out though that the exact conditions leading to measured concentrations in the top layer could only be truly established when the partitioning of excess maleic acid is established between the two layers. The bottom layer (rich in water) would most likely be under-saturated since no excess solids remained. This possibility is substantiated by the solubility data on the bottom layer, where the concentrations are found to be very similar across all the experiments. While the vial at 70/30 acetonitrile/water with excess maleic acid remained biphasic even after nineteen days, the 70/30 acetonitrile/water vial without any excess maleic acid after five days had some very large crystals floating in a solution that still seemed biphasic. […] These crystals were used to obtain crystallography data. After nineteen days of equilibration at 5° C., the 90/10 acetonitrile/water vial with excess maleic acid had turned back into a slurry of solids in a single liquid phase.

[2] = Solubility of Form II in acetonitrile/ethanol 3A mixtures; conditions: equilibrated nineteen days; for Solubility, 70/30 ACN/EtOH 3A wt. % S-[2-[(1-Iminoethyl)amino]ethyl]-2-methyl-L-cysteine: 70/30 v/v acetonitrile/ethanol 3A; for Solubility, 90/10 ACN/EtOH 3A wt. % S-[2-[(1-Iminoethyl)amino]ethyl]-2-methyl-L-cysteine: 90/10 v/v acetonitrile/ethanol 3A
Description: Excess solids were equilibrated in these solvents at the appropriate temperature (in a shaker bath) for nineteen days. Supernatant samples were withdrawn and analyzed by HPLC for concentration of S-[2-[(1-Iminoethyl)amino]ethyl]-2-methyl-L-cysteine.

[3] = Moisture sorption of Form II by DVS moisture balance; conditions: 25° C.
Description: However, the solids re-hydrate equally easily when exposed to R.H. greater than 10%. […] The behavior of form II during this experiment was typical of a highly crystalline channel hydrate/solvate.

## S-[2-[(1-Iminoethyl)amino]ethyl]-2-methyl-L-cysteine maleate crystalline salt Form II
[1]
  Concentration in the solution phase, S-[2-[(1-Iminoethyl)amino]ethyl]-2-methyl-L-cysteine: 0.613 wt %
[2]; 5 ° C.
  Solubility, 70/30 ACN/EtOH 3A wt. % S-[2-[(1-Iminoethyl)amino]ethyl]-2-methyl-L-cysteine: 0.679 wt. %
  Solubility, 90/10 ACN/EtOH 3A wt. % S-[2-[(1-Iminoethyl)amino]ethyl]-2-methyl-L-cysteine: 0.169 wt. %
[2]; 25 ° C.
  Solubility, 70/30 ACN/EtOH 3A wt. % S-[2-[(1-Iminoethyl)amino]ethyl]-2-methyl-L-cysteine: 0.737 wt. %
  Solubility, 90/10 ACN/EtOH 3A wt. % S-[2-[(1-Iminoethyl)amino]ethyl]-2-methyl-L-cysteine: 0.135 wt. %
[3]; DVS moisture balance
  Cycling between sorption and de-sorption cycles: did not show any hysteresis or loss of crystallinity
[3]; between 10 and 70% R.H.
  Moisture gain: ~2.5%
[3]; between 70 and 90% R.H.
  Moisture gain: ~4.5%
